# In patent US4985447A, “Certain benzoquinones, naphthoquinones and derivatives thereof which exhibit thromboxane A2 synthetase inhibition or receptor antagonism and the like” (Takeda Chemical Industries, Ltd., priority 1986, dated 1991):
# Read-outs that look alike come from different tables or passages of the source.
# Legend:
# [1] = target: T1, Thromboxane A2 (TXA2) synthetase (Equus caballus, UniProt A0A9L0T8T9); assay: Inhibition of Thromboxane A2 (TXA2) synthetase (horse platelet microsome); format: biochemical; details: read-out: Inhibition of Thromboxane A2 (TXA2) synthetase
# T1 sequence (A0A9L0T8T9 2-534): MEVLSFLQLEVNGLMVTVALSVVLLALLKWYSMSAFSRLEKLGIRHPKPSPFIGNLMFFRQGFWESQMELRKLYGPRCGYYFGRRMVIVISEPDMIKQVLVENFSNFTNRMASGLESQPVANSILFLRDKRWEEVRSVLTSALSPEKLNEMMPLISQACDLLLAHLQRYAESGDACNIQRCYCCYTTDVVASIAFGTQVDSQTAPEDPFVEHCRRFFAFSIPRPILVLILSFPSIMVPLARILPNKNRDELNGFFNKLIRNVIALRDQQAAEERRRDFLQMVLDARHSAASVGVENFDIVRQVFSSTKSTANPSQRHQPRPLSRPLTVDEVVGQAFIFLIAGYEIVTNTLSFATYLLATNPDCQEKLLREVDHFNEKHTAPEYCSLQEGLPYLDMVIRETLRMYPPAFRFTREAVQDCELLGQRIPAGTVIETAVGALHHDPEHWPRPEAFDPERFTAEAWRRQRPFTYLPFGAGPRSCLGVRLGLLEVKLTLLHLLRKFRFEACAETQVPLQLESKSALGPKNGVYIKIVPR
# Experimental: Inhibition of Thromboxane A2 (TXA2) synthetase
# (§1) As a preparation of TXA2 synthetase, horse platelet microsome treated with indomethacin (indomethacin-treated horse platelet microsome: IPM) according to the method of Needleman et al. (Science 193 163, 1979) was used. To 60 μl of the solution of IPM in 50 mM Tris buffer(pH 7.5) (containing 140 μg on the protein basis), 60μof a solution containing a drug at a variable concentration was added and kept still at room temperature for 5 minutes. One hundred μl of this mixture was taken, to which 20 μl of a buffer containing 30 ng cf prostaglandin H2 (PGH2) with ice-cooling and kept still at 0° C. for 5 minutes to produce thromboxane A2 (TXA2). The reaction was stopped by addition of 500 μl of Tris buffer, and 50 μl of the resultant solution was subjected to radioimmunoassay of thromboxane B2 (TXB2), a stable metabolite of TXA2 [Shibouta et al. Biochem. Pharmacol. 28 3601, 1979]. The rate of inhibition (%) of TXA2 synthetase was determined from the difference in TXB2 productivity between the untreated group and the treated group.
# as §1, with “60 μl of” for “60μof”, “of” for “cf”
# 5-lipoxygenase = target: T2, 5-lipoxygenase (Rattus norvegicus, UniProt P12527); assay: Inhibition of 5-lipoxygenase (production of 5-HETE in RBL-1 cells); format: cell-based, rat (RBL-1, rat basophilic leukemia cells); details: for inhibition at 1 µM: 10^-6 M; for inhibition at 0.1 µM: 10^-7 M
# T2 construct: endogenous in cells; host or cells: RBL-1 cells (rat basophilic leukemia)
# T2 sequence (P12527 1-673): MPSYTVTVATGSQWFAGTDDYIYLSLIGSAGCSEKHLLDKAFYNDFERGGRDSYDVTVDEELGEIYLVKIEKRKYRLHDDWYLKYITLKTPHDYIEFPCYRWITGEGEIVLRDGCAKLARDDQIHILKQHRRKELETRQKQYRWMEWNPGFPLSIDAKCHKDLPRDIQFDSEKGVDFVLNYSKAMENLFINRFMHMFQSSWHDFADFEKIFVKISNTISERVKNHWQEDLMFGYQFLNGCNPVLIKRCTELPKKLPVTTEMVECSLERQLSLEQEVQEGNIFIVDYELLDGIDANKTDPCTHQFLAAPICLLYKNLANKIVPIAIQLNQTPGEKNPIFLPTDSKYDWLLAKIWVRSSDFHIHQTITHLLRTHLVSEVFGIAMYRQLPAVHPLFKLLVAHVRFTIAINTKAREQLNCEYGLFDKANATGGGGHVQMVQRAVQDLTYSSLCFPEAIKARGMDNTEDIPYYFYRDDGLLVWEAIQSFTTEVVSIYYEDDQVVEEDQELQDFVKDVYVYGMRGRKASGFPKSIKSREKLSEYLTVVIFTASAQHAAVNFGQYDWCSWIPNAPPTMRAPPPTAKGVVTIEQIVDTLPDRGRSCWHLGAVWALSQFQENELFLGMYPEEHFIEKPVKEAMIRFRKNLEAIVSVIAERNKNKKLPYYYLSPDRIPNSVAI
# Experimental: Inhibition of 5-lipoxygenase
# 10^7 RBL-1 cells (rat basophilic leukemia cells) were suspended in 0.5 ml of MCM (mast cell medium ). To the suspension was subsequently added a solution consisting of 0.5 ml of MCM, 50 μg of arachidonic acid, 10 μg of A-23187 (calcium ionophore, Eli Lilly), and a solution of a quinone compound in ethanol at the final concentration of 1 μM, 0.1 μM, 0.01 μM or 0.001 μM of the test compound was added and allowed to react at 37° C. for 20 minutes. After the reaction, 4 ml of ethanol containing 1,4-dimethoxy-2-methyl-3-(3-methoxypropyl)naphthalene as an internal standard were added, mixed well by shaking, and kept at room temperature for 10 minutes. Then the mixture was centrifuged for 10 minutes (2000 rpm), and the supernatant was separated. The supernatant was concentrated to dryness under reduced pressure. To the concentrate, 0.5 ml of 60% aqueous methanol was added. One hundred μl of this solution was subjected to high performance liquid chromatography for quantitative analysis of 5-HETE (5-hydroxyeicosatetraenoic acid). The amount of 5-HETE was analyzed by measurement of the absorbance at […] with a UV absorption monitor.
# Inhibitory effect (IE) of production of 5-HETE is expressed by (1-b/a)×100, wherein a is the peak height or the area corrected with the peak due to the internal standard in the absence of the quinone compound, and b is the peak hight or peak area corrected with the peak due to the internal standard in the presence of the quinone compound.
# [2] = system: lipid peroxide in rat brain homogenate; assay: Inhibition of production of lipid peroxide in rat brain homogenate; format: biochemical, rat (Sprague-Dawley)
# Experimental: Procedure: Sprague-Dawley rats (male, 9-15 weeks old) anesthetized with pentobarbital (50 mg/kg, intraperitoneal administration) were venesected and the brain tissue was resected. The tissue was homogenized in phosphate buffer (pH 7.4), and used as a 5% homogenate (on weight basis). The brain homogenate was allowed to react at 37° C. for 1 hour, and the amount of lipid peroxide produced was determined with the thiobarbituric acid method according to the method of Okawa et al. (Analytical Biochem 95 551, 1979). The drug was added to the 5% homogenate before the reaction at 37° C. for 1 hour so that the final concentration might be 5×10^-7 or 10^-6 M. Inhibition of production of lipid peroxide was expressed as the rate of inhibition in % of the amount produced in the solvent(DMSO)-treated group.
Compound,inhibition at 1 µM (5-lipoxygenase) [%],inhibition at 0.1 µM (5-lipoxygenase) [%],inhibition at 1 µM ([1]; 10^-6 M) [%],inhibition at 0.1 µM ([1]; 10^-7 M) [%],inhibition at 0.1 µM [1] [%],inhibition at 1 µM [1] [%],Inhibition of production of lipid peroxide in rat brain homogenate ([2]; 5 × 10^-7 M) [%],Inhibition of production of lipid peroxide in rat brain homogenate ([2]; 10^-6 M) [%]
"CC1=C(C)C(=O)C(C(c2ccccc2)c2cccnc2)=C(C)C1=O (centres unmarked) [Compound No. 2, 3,5,6-trimethyl-2-[phenyl-(3-pyridyl)methyl]-1,4-benzoquinone]",85,60,–,–,45,89,32,100
"CC(=Cc1ccc(C(C2=C(C)C(=O)C(C)=C(C)C2=O)c2cccnc2)cc1)C(=O)O (stereo not drawn) [Compound No. 5, 4-[3,5,6-trimethyl-1,4-benzoquinon-2-yl(3-pyridyl)methyl]-α-methylcinnamic acid]",73,28,65,7,–,–,29,100
"CCCCCCC(C1=C(C)C(=O)C(C)=C(C)C1=O)c1cccnc1 (centres unmarked) [Compound No. 16, 1-(3,5,6-trimethyl-1,4-benzoquinon-2-yl)-1-(3-pyridyl)heptane]",96,77,49,6,–,–,44,100
CC(=O)OCCCCC(C1=C(C)C(=O)C(C)=C(C)C1=O)c1cccnc1 (centres unmarked) [compound 9],90,62,54,18,–,–,17,100
CC1=C(C)C(=O)C(C(CCCCC(=O)O)c2cccnc2)=C(C)C1=O (centres unmarked) [compound 10],90,52,67,24,–,–,13,100
CC1=C(C)C(=O)C(C(CCCCCO)c2cccnc2)=C(C)C1=O (centres unmarked) [compound 11],88,61,67,13,–,–,15,100
CC(=O)OCCCCCC(C1=C(C)C(=O)C(C)=C(C)C1=O)c1cccnc1 (centres unmarked) [compound 12],91,67,56,22,–,–,15,100

# Further lines, with some results ahead:
inhibition at 1 µM (5-lipoxygenase) [%],inhibition at 0.1 µM (5-lipoxygenase) [%],inhibition at 1 µM ([1]; 10^-6 M) [%],inhibition at 0.1 µM ([1]; 10^-7 M) [%],Compound,inhibition at 0.1 µM [1] [%],inhibition at 1 µM [1] [%],Inhibition of production of lipid peroxide in rat brain homogenate ([2]; 5 × 10^-7 M) [%],Inhibition of production of lipid peroxide in rat brain homogenate ([2]; 10^-6 M) [%]
86,35,32,–,"CCCCC(C1=C(C)C(=O)C(C)=C(C)C1=O)c1cccnc1 (centres unmarked) [Compound No. 7, 2-[1-(3-pyridyl)pentyl]-3,5,6-trimethyl-1,4-benzoquinone]",–,–,26,100
92,80,61,35,CC1=C(C)C(=O)C(Cc2cccnc2)=C(C)C1=O [Compound No. 14],–,–,46,100
88,63,37,6,CC1=C(C)C(=O)C(C(CCCCO)c2cccnc2)=C(C)C1=O (centres unmarked) [compound 8],–,–,20,100
91,57,76,15,CCC(C1=C(C)C(=O)C(C)=C(C)C1=O)c1cccnc1 (centres unmarked) [compound 15],–,–,52,100
